Data from BindingDB's records for doi:10.1016/S0960-894X(97)00311-9 (n/a, 1997).

Assay: Inhibition of human platelet aggregation

CC(C)[C@H](NC(=O)[C@H](CC(=O)O)NC(=O)CNC(=O)C=Cc1ccc(N=C(N)N)cc1)C(=O)O [(S)-2-((S)-3-Carboxy-2-{2-[(E)-3-(4-guanidino-phenyl)-acryloylamino]-acetylamino}-propionylamino)-3-methyl-butyric acid]
IC50: 6600 nM

CC(C)[C@H](NC(=O)[C@H](CC(=O)O)NC(=O)CCNC(=O)C=Cc1ccc(N=C(N)N)cc1)C(=O)O [(S)-2-((S)-3-Carboxy-2-{3-[(E)-3-(4-guanidino-phenyl)-acryloylamino]-propionylamino}-propionylamino)-3-methyl-butyric acid]
IC50: 2000 nM

CC(C)[C@H](NC(=O)[C@H](CC(=O)O)NC(=O)C[C@H]1CCCN1C(=O)C=Cc1ccc(N=C(N)N)cc1)C(=O)O [(S)-2-[(S)-3-Carboxy-2-(2-{(R)-1-[(E)-3-(4-guanidino-phenyl)-acryloyl]-pyrrolidin-2-yl}-acetylamino)-propionylamino]-3-methyl-butyric acid]
IC50: 25000 nM

CC(C)[C@H](NC(=O)[C@H](CC(=O)O)NC(=O)C[C@@H]1CCCCN1C(=O)C=Cc1ccc(N=C(N)N)cc1)C(=O)O [(S)-2-[(S)-3-Carboxy-2-(2-{(S)-1-[(E)-3-(4-guanidino-phenyl)-acryloyl]-piperidin-2-yl}-acetylamino)-propionylamino]-3-methyl-butyric acid]
IC50: 1600 nM

CC(C)[C@H](NC(=O)[C@H](CC(=O)O)NC(=O)C[C@@H]1CCCN1C(=O)C=Cc1ccc(N=C(N)N)cc1)C(=O)O [(S)-2-[(S)-3-Carboxy-2-(2-{(S)-1-[(E)-3-(4-guanidino-phenyl)-acryloyl]-pyrrolidin-2-yl}-acetylamino)-propionylamino]-3-methyl-butyric acid]
IC50: 96 nM

CC(C)[C@H](NC(=O)[C@H](CC(=O)O)NC(=O)CCN(C)C(=O)C=Cc1ccc(N=C(N)N)cc1)C(=O)O [(S)-2-[(S)-3-Carboxy-2-(3-{[(E)-3-(4-guanidino-phenyl)-acryloyl]-methyl-amino}-propionylamino)-propionylamino]-3-methyl-butyric acid]
IC50: 500 nM

CCN(CCC(=O)N[C@@H](CC(=O)O)C(=O)N[C@H](C(=O)O)C(C)C)C(=O)C=Cc1ccc(N=C(N)N)cc1 [(S)-2-[(S)-3-Carboxy-2-(3-{ethyl-[(E)-3-(4-guanidino-phenyl)-acryloyl]-amino}-propionylamino)-propionylamino]-3-methyl-butyric acid]
IC50: 410 nM

CC(C)[C@H](NC(=O)[C@H](CC(=O)O)NC(=O)[C@@H]1CCCN(C(=O)C=Cc2ccc(N=C(N)N)cc2)C1)C(=O)O [(S)-2-[(S)-3-Carboxy-2-({(R)-1-[(E)-3-(4-guanidino-phenyl)-acryloyl]-piperidine-3-carbonyl}-amino)-propionylamino]-3-methyl-butyric acid]
IC50: 180 nM

CC(C)[C@H](NC(=O)[C@H](CC(=O)O)NC(=O)[C@@H]1CCN(C(=O)C=Cc2ccc(N=C(N)N)cc2)C1)C(=O)O [(S)-2-[(S)-3-Carboxy-2-({(R)-1-[(E)-3-(4-guanidino-phenyl)-acryloyl]-pyrrolidine-3-carbonyl}-amino)-propionylamino]-3-methyl-butyric acid]
IC50: 65 nM

CC(C)[C@H](NC(=O)[C@H](CC(=O)O)NC(=O)[C@H]1CCCN(C(=O)C=Cc2ccc(N=C(N)N)cc2)C1)C(=O)O [(S)-2-[(S)-3-Carboxy-2-({(S)-1-[(E)-3-(4-guanidino-phenyl)-acryloyl]-piperidine-3-carbonyl}-amino)-propionylamino]-3-methyl-butyric acid]
IC50: 620 nM

CC(C)[C@H](NC(=O)[C@H](CC(=O)O)NC(=O)[C@H]1CCN(C(=O)C=Cc2ccc(N=C(N)N)cc2)C1)C(=O)O [(S)-2-[(S)-3-Carboxy-2-({(S)-1-[(E)-3-(4-guanidino-phenyl)-acryloyl]-pyrrolidine-3-carbonyl}-amino)-propionylamino]-3-methyl-butyric acid]
IC50: 3300 nM
